Data taken from ChEMBL document CHEMBL5390317, “Novel Indane-Containing NBTIs with Potent Anti-Gram-Negative Activity and Minimal hERG Inhibition” (ACS Med Chem Lett, 2023).
Converted amounts (≈) assume the structure as drawn. The source made the active and inactive calls. No cut-off for these calls is given here.

Assays:
Acinetobacter baumannii [1] = test: Antibacterial activity against Acinetobacter baumannii ATCC BAA-747 assessed as inhibition in bacterial growth incubated for 20 to 24 hrs by CLSI based broth microdilution method; format: functional; settings: Acinetobacter baumannii, ATCC BAA-747, time 20-24 hrs; read-out: MIC
Pseudomonas aeruginosa [2] = test: Antibacterial activity against Pseudomonas aeruginosa NCTC 11451 assessed as inhibition in bacterial growth incubated for 20 to 24 hrs by CLSI based broth microdilution method; format: functional; settings: Pseudomonas aeruginosa, NCTC 11451, time 20-24 hrs; read-out: MIC
hERG (KCNH2) [3] = target: T1, hERG (KCNH2) (Homo sapiens, UniProt Q12809); test: Inhibition of hERG potassium channel expressed in CHO cells at 1 uM by electrophysiological patch clamp assay relative to control; format: toxicity, cell-based; settings: CHO cells expressing hERG
CYP2D6 = CYP2D6 (Homo sapiens, UniProt P10635); test: Inhibition of CYP2D6 (unknown origin) at 10 uM relative to control; format: ADME
Escherichia coli [4] = test: Antibacterial activity against Escherichia coli K-12 BW25113 deltaTolC assessed as inhibition in bacterial growth incubated for 20 to 24 hrs by CLSI based broth microdilution method; format: functional; settings: time 20-24 hrs
Staphylococcus aureus [5] = test: Antibacterial activity against Staphylococcus aureus ATCC BAA-1556 assessed as inhibition in bacterial growth incubated for 20 to 24 hrs by CLSI based broth microdilution method; format: functional; settings: Staphylococcus aureus, ATCC BAA-1556, time 20-24 hrs; read-out: MIC
[6] = Cytotoxicity against HEK293 cells; format: toxicity, cell-based; settings: human
Acinetobacter baumannii [7] = test: Antibacterial activity against Acinetobacter baumannii ATCC 51432 assessed as inhibition in bacterial growth incubated for 20 to 24 hrs by CLSI based broth microdilution method; format: functional; settings: Acinetobacter baumannii, ATCC 51432, time 20-24 hrs; read-out: MIC
Pseudomonas aeruginosa [8] = test: Antibacterial activity against pseudomonas aeruginosa ATCC 27853 infected in neutropenic CD-1 lung infection mouse model assessed as reduction in colony forming unit in lung at 45 mg/kg, sc TID administered for 24 hrs; format: functional, organism-based
hERG (KCNH2) [9] = target: T1, hERG (KCNH2); test: Inhibition of hERG potassium channel expressed in CHO cells at 10 uM by electrophysiological patch clamp assay relative to control; format: toxicity, cell-based; settings: CHO cells expressing hERG
Klebsiella pneumoniae [10] = test: Antibacterial activity against Klebsiella pneumoniae ATCC BAA-1705 assessed as inhibition in bacterial growth incubated for 20 to 24 hrs by CLSI based broth microdilution method; format: functional; settings: time 20-24 hrs
Escherichia coli [11] = test: Antibacterial activity against Escherichia coli ATCC 35218 assessed as inhibition in bacterial growth incubated for 20 to 24 hrs by CLSI based broth microdilution method; format: functional; settings: Escherichia coli, ATCC 35218, time 20-24 hrs; read-out: MIC
[12] = Protein binding in mouse plasma assessed as free fraction; format: ADME, cell-free
DNA gyrase = DNA gyrase (Escherichia coli, UniProt P0AES4+P0AES6); test: Inhibition of Escherichia coli DNA gyrase incubated for 80 mins by Transcreener ADP2 FI assay; format: protein-complex assay
[13] = Stability in mouse microsome; format: ADME; settings: microsomes
CYP3A4 = CYP3A4 (Homo sapiens, UniProt P08684); test: Inhibition of CYP3A4 (unknown origin) at 10 uM relative to control; format: ADME
[14] = Stability in human hepatocyte; format: ADME, cell-based; settings: hepatocytes
Pseudomonas aeruginosa [15] = test: Bactericidal effect against pseudomonas aeruginosa ATCC 27853 infected in neutropenic CD-1 lung infection mouse model assessed as reduction in colony forming unit in lung at 45 mg/kg, sc TID administered at […] interval for 24 hrs; format: functional
[16] = Inhibition of Escherichia coli topoisomerase 4 incubated for 120 mins by Transcreener ADP2 FI assay
Klebsiella pneumoniae [17] = test: Antibacterial activity against Klebsiella pneumoniae ATCC BAA-2146 assessed as inhibition in bacterial growth incubated for 20 to 24 hrs by CLSI based broth microdilution method; format: functional; settings: Klebsiella pneumoniae, ATCC BAA-2146, time 20-24 hrs; read-out: MIC
Pseudomonas aeruginosa [18] = test: Antibacterial activity against pseudomonas aeruginosa ATCC 27853 infected in neutropenic CD-1 lung infection mouse model assessed as reduction in colony forming unit in lung at 15 mg/kg, sc TID administered at 8 hrs interval for 24 hrs; format: functional, organism-based
Acinetobacter baumannii [19] = test: Antibacterial activity against Acinetobacter baumannii ATCC 19606 assessed as inhibition in bacterial growth incubated for 20 to 24 hrs by CLSI based broth microdilution method; format: functional; settings: time 20-24 hrs
Pseudomonas aeruginosa [20] = test: Antibacterial activity against Pseudomonas aeruginosa NCTC 13437 assessed as inhibition in bacterial growth incubated for 20 to 24 hrs by CLSI based broth microdilution method; format: functional; settings: Pseudomonas aeruginosa, NCTC 13437, time 20-24 hrs; read-out: MIC
Escherichia coli [21] = test: Antibacterial activity against Escherichia coli ATCC 25922 assessed as inhibition in bacterial growth incubated for 20 to 24 hrs by CLSI based broth microdilution method; format: functional; settings: time 20-24 hrs
Escherichia coli [22] = test: Antibacterial activity against Escherichia coli K-12 BW25113 assessed as inhibition in bacterial growth incubated for 20 to 24 hrs by CLSI based broth microdilution method; format: functional; settings: Escherichia coli, K-12 BW25113, time 20-24 hrs; read-out: MIC
Staphylococcus aureus [23] = test: Antibacterial activity against Staphylococcus aureus ATCC 29213 assessed as inhibition in bacterial growth incubated for 20 to 24 hrs by CLSI based broth microdilution method; format: functional; settings: Staphylococcus aureus, ATCC 29213; time 20-24 hrs; read-out: MIC
Klebsiella pneumoniae [24] = test: Antibacterial activity against Klebsiella pneumoniae ATCC 700603 assessed as inhibition in bacterial growth incubated for 20 to 24 hrs by CLSI based broth microdilution method; format: functional; settings: Klebsiella pneumoniae, ATCC 700603, time 20-24 hrs; read-out: MIC
[25] = Drug excretion in Wistar-Han rat urine assessed as parent compound remaining at 3 mg/kg, iv administered upto 48 hrs by LC-MS/MS method; format: ADME, organism-based; settings: read-out: Drug excretion
[26] = Stability in rat microsome; format: ADME; settings: microsomes
[27] = Stability in human microsome; format: ADME; settings: microsomes
[28] = target: Voltage-gated inwardly rectifying potassium channel KCNH2 (Homo sapiens, UniProt Q12809); test: (§1) Inhibition of hERG potassium channel expressed in CHO cells by electrophysiological patch clamp assay; format: toxicity, cell-based
hERG (KCNH2) [29] = target: T1, hERG (KCNH2); test: as §1; format: toxicity, cell-based; settings: human, CHO cells expressing hERG
Escherichia coli [30] = test: Antibacterial activity against Escherichia coli ATCC BAA-2340 assessed as inhibition in bacterial growth incubated for 20 to 24 hrs by CLSI based broth microdilution method; format: functional; settings: Escherichia coli, ATCC BAA-2340, time 20-24 hrs; read-out: MIC
CYP2C9 = CYP2C9 (Homo sapiens, UniProt P11712); test: Inhibition of CYP2C9 (unknown origin) at 10 uM relative to control; format: ADME
[31] = Stability in rat hepatocyte; format: ADME, cell-based; settings: hepatocytes
[32] = Protein binding in human plasma assessed as free fraction; format: ADME, cell-free
Pseudomonas aeruginosa [33] = test: Bacteriostatic effect against pseudomonas aeruginosa ATCC 27853 infected in neutropenic CD-1 lung infection mouse model assessed as reduction in colony forming unit at 15 mg/kg, sc TID administered at 8 hrs interval for 24 hrs; format: functional, organism-based
Klebsiella pneumoniae [34] = test: Antibacterial activity against Klebsiella pneumoniae ATCC 10031 assessed as inhibition in bacterial growth incubated for 20 to 24 hrs by CLSI based broth microdilution method; format: functional; settings: time 20-24 hrs
[35] = Protein binding in rat plasma assessed as free fraction; format: ADME, cell-free
[36] = Aqueous solubility of the compound at pH 6.5 at > 0.5 mg/ml; format: physicochemical; settings: buffer
[37] = Stability in mouse hepatocyte; format: ADME, cell-based; settings: hepatocytes
Pseudomonas aeruginosa [38] = test: Antibacterial activity against Pseudomonas aeruginosa ATCC 27853 assessed as inhibition in bacterial growth incubated for 20 to 24 hrs by CLSI based broth microdilution method; format: functional; settings: time 20-24 hrs

T1 sequence (Q12809 whole entry): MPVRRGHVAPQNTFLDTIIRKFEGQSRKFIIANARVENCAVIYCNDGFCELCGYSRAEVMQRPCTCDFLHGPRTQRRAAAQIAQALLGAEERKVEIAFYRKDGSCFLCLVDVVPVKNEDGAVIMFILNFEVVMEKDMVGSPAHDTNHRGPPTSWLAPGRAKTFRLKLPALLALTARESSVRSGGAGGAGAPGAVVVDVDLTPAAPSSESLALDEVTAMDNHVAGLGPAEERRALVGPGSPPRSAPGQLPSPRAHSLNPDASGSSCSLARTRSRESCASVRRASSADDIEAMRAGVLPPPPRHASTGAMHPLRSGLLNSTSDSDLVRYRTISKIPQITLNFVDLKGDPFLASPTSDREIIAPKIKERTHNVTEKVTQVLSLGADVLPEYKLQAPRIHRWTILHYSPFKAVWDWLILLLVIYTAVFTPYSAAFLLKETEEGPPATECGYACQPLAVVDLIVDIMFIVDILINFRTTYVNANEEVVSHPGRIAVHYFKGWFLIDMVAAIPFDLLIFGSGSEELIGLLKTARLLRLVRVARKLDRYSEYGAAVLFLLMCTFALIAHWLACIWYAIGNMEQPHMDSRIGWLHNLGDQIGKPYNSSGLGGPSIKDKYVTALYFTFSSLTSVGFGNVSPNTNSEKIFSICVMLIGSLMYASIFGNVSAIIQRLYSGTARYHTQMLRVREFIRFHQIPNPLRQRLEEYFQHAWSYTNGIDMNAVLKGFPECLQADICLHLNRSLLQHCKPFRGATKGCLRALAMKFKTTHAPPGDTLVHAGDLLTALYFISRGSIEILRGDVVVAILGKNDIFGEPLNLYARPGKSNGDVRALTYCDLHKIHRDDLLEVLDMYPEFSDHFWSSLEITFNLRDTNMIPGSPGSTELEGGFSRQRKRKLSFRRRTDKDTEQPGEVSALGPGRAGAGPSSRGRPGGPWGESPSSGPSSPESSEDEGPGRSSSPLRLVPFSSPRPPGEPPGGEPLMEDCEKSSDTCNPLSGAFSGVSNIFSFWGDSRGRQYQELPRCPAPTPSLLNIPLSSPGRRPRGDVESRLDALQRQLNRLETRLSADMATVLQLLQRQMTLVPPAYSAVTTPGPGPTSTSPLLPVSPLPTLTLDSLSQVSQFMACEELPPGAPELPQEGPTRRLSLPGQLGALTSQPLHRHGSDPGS
Chain of CYP2D6 (P10635 whole entry): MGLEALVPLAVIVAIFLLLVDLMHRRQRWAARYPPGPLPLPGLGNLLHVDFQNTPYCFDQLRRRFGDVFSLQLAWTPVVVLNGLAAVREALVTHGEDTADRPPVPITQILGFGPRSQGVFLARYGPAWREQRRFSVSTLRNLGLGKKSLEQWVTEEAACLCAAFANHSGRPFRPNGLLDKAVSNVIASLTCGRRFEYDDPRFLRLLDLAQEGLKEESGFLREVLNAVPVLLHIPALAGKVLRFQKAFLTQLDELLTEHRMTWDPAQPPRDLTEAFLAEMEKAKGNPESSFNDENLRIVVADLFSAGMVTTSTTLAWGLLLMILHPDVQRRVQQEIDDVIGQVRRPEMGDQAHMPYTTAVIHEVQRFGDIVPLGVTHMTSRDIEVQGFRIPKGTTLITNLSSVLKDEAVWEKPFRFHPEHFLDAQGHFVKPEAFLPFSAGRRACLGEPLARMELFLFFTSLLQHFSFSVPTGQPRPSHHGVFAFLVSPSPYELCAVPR
Chain of Voltage-gated inwardly rectifying potassium channel KCNH2 (Q12809 whole entry): as the sequence (Q12809 whole entry) above
Chain of CYP3A4 (P08684 whole entry): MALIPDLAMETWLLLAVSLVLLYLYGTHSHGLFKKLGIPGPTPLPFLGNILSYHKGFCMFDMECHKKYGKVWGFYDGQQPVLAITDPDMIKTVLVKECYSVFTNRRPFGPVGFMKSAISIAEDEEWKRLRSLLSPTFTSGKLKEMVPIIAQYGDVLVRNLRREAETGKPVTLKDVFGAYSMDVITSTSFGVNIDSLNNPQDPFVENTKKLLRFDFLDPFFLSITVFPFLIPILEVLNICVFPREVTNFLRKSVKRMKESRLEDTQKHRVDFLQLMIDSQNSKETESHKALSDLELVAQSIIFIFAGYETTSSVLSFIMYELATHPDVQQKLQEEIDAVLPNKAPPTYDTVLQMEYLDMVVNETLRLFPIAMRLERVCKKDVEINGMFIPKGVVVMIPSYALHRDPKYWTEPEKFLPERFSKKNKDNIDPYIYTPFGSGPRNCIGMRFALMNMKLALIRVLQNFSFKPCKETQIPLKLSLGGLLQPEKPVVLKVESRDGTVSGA
Chain of CYP2C9 (P11712 whole entry): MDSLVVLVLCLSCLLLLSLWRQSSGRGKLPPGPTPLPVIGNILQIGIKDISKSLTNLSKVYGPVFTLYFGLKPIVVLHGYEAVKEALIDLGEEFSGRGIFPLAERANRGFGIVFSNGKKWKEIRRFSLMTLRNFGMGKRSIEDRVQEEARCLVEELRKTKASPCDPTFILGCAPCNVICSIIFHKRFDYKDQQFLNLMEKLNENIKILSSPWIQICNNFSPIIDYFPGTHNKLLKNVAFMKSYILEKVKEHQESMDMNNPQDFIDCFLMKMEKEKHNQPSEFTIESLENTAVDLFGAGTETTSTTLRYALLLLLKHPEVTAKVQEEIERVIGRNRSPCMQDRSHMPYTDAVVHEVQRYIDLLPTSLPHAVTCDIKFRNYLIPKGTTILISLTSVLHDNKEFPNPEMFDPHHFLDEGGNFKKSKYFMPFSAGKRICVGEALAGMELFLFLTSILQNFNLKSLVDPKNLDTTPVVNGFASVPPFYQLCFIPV

- MIC (Acinetobacter baumannii [1]): 0.5 µg/mL (≈ 0.976 µM)
- MIC (Pseudomonas aeruginosa [2]): 1 µg/mL (≈ 1.95 µM)
- inhibition at 10 µM (CYP2D6): < 25%
- MIC (Escherichia coli [4]): ≤ 0.06 µg/mL
- MIC (Staphylococcus aureus [5]): 0.5 µg/mL (≈ 0.976 µM)
- MIC (Acinetobacter baumannii [7]): 2 µg/mL (≈ 3.9 µM)
- MIC (Klebsiella pneumoniae [10]): 1 µg/mL (≈ 1.95 µM)
- MIC (Escherichia coli [11]): 0.125 µg/mL (≈ 0.244 µM)
- fraction unbound [12]: 0.4
- IC50 (DNA gyrase): 60 nM
- Stability [13]: Stable
- inhibition at 10 µM (CYP3A4): < 25%
- Stability [14]: Stable
- IC50 [16]: 30 nM
- MIC (Klebsiella pneumoniae [17]): 2 µg/mL (≈ 3.9 µM)
- MIC (Acinetobacter baumannii [19]): 2 µg/mL (≈ 3.9 µM)
- MIC (Pseudomonas aeruginosa [20]): 1 µg/mL (≈ 1.95 µM)
- MIC (Escherichia coli [21]): 0.125 µg/mL (≈ 0.244 µM)
- MIC (Escherichia coli [22]): 0.06 µg/mL (≈ 0.117 µM)
- MIC (Staphylococcus aureus [23]): 0.125 µg/mL (≈ 0.244 µM)
- MIC (Klebsiella pneumoniae [24]): 1 µg/mL (≈ 1.95 µM)
- dose excreted at 48 h [25]: 5%
- Stability [26]: Stable
- Stability [27]: Stable
- MIC (Escherichia coli [30]): 0.25 µg/mL (≈ 0.488 µM)
- inhibition at 10 µM (CYP2C9): < 25%
- Stability [31]: Stable
- fraction unbound [32]: 0.4
- MIC (Klebsiella pneumoniae [34]): ≤ 0.06 µg/mL
- fraction unbound [35]: 0.32
- solubility [36]: Soluble
- Stability [37]: Stable
- MIC (Pseudomonas aeruginosa [38]): 0.25 µg/mL (≈ 0.488 µM)
SMILES: NC1(COc2cc(F)c3c(c2)CC(CNCCC2CN(c4cnc5c(n4)NC(=O)CO5)C(=O)O2)C3)CC1 (configuration not stated)
- inhibition at 1 µM (hERG (KCNH2) [3]): < 1%
- CC50 [6]: > 100000 nM
- Activity (Pseudomonas aeruginosa [8]): Active
- inhibition at 10 µM (hERG (KCNH2) [9]): < 1%
- Activity (Pseudomonas aeruginosa [15]): 2.6 log10CFU
- Activity (Pseudomonas aeruginosa [18]): Active
- IC50 [28]: > 20000 nM
- IC20 (hERG (KCNH2) [29]): > 10000 nM
- Activity (Pseudomonas aeruginosa [33]): inactive
